Assay results taken from patent US10617656B2, “Methods of increasing the cytotoxicity of chemotherapeutic agents with multisubstrate inhibitors of histone, protein-Lys, polyamine acetylation, and polyamine metabolism” (Vanderbilt University, priority 2010, dated 2020).

Experiments:
GT41F skin fibroblasts = assay: 96-well MTS viability assay, GT41F fibroblasts; type: cell-based, human; settings: spm single agent, 3 days
Protocol: Cells were plated in 96-well plates at 2000 cells per well and treated with the indicated doses of spd-3a. Cell viability was measured by the MTS assay 3 days later.
DLD-1 cells or H358 cells were plated in 96-well plates at 2000 cells per well and treated with the indicated doses of (A) spm-3 or (B) spm-2. (C) Cell viability was measured by the MTS assay 3 days later. Similar experiment using GT41 fibroblasts with spm2 or spm 3. Each assay point represents an average of duplicates.

p300 catalytic domain = target: T1, p300 catalytic domain (Homo sapiens, UniProt Q09472); assay: 96-well fluorescent HAT assay kit (Active Motif), H3 peptide (5-23); type: biochemical
T1 construct: the catalytic domain of p300(965-1810); purchased Active Motif, Carlsbad, Calif
T1 sequence (Q09472 965-1810): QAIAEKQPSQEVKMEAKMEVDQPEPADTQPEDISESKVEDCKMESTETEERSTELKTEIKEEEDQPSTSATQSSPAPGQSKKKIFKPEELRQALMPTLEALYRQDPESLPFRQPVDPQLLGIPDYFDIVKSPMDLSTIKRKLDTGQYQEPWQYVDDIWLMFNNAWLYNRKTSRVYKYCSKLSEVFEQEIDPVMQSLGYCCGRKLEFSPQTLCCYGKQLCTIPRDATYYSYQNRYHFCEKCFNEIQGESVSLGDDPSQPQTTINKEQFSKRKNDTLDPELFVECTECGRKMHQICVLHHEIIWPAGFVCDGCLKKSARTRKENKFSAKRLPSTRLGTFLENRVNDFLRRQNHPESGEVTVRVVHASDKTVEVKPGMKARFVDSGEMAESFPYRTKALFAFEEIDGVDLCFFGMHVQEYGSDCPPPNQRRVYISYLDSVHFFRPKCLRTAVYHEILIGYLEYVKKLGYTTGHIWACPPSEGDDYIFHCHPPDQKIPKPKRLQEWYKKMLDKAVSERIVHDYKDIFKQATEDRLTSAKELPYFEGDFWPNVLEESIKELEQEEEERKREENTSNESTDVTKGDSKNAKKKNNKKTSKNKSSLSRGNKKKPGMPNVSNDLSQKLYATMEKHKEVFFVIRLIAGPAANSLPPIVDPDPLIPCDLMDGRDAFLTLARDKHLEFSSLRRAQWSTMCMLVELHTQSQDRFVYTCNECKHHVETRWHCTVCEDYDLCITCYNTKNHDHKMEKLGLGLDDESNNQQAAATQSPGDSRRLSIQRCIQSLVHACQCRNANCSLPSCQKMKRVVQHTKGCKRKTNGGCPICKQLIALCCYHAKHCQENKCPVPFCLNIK
Protocol: (A) Structures of compound 1a (spermidine CoA), and the acetylated side chain of a lysine residue of a polypeptide chain. (B) Inhibition of p300 acetylating activity as a function of 1a concentration. The catalytic domain of recombinant p300 (1284-1660) was assayed under steady state conditions using an N-terminal acetylated histone H4 peptide substrate, Ac-H4(1-19)-NH2. Closed circles represent experimental data points; plain line represents theoretical profile based on data reduction software (Prism) using a one site inhibition model. (C) In vitro assay of p300 activity using a 96-well assay kit (ActivMotif) and an H3 peptide substrate (5-23), according to manufacturer's instructions. Bars represent average of duplicates. […]
Reactions were set up in duplicate following the protocol supplied by the kit. […] Activity is measured in fluorescence units. […]
Assays were performed using the fluorescent HAT assay kit (Active Motif, Carlsbad, Calif.), an H3 peptide as substrate (residues 5-23), the p300 catalytic domain as enzyme, and 50 μM inhibitor in duplicate, according to the manufacturer's instructions. […] The reaction product, CoASH, was detected spectrophotometrically by reaction with 5,5′-dithiobis-2-nitrobenzoic acid (DTNB). Assays were carried out at 30° C. for 30 minutes, conditions which had previously been determined in kinetic assays to sufficient to achieve steady state.

[1] = system: thymidine dimers in DNA of H358 cells; assay: Nucleotide excision repair assay (thymidine dimer slot blot) after UVC; type: cell-based; settings: 50 μM 1a, 24 hours after 40 J/m^2 UVC (untreated: 50%)
Protocol: Also shown are controls for no treatment (“c” minus 1a) or treatment with 1a only (“c” plus 1a). Each lane represents 60 μg protein. […] Each lane represents 60 μg protein.
For NER, a slot blot immunoassay was used to detect the loss of thymidine dimers from the DNA of UVC treated cells as previously described. An antibody specific for cyclobutane pyrimidine dimers, the major photoproduct produced by UVC treatment, was purchased from Kamiya Biomedical Co (Seattle, Wash.; anti-thymidine dimer, clone KTM53) and used at 1:40 dilution.

H358 cells = assay: Trypan blue exclusion viability assay; type: cell-based

inhibition of p300 HAT activity (p300 catalytic domain; FIG. 24, p300(965-1810), H3 peptide) | inhibition at 50 µM (p300 catalytic domain; 50 μM inhibitor, Active Motif 96-well assay, FIG. 9, read-out: inhibition of incorporation of acetyl groups into the H4 peptide substrate relative to untreated wells) [%] | Compound | sensitivity of normal fibroblasts (GT41F skin fibroblasts) | decrease of thymidine dimers [1] [%] | viability at 50 µM (H358 cells; Homo sapiens, NCI-H358, 18 h, read-out: cell viability, single agent) [%] | cell viability, single agent (H358 cells; human, 24 h) [%]
HAT inhibitors | – | CC(=O)NCCSCC(=O)NCCCNCCCCNCCCN [spm-3] | sensitivity similar to that of H358 lung cancer cells | – | – | –
– | 88 | CC(C)(COP(=O)(O)OP(=O)(O)OC[C@H]1O[C@@H](n2cnc3c(N)ncnc32)[C@H](O)[C@@H]1OP(=O)(O)O)[C@@H](O)C(=O)NCCC(=O)NCCSCC(=O)NCCCNCCCCN [1a, spermidine[N1]-CoA] | – | 40 | ≥ 96 | ≥ 96
